Molecular target: T1, IRE1 kinase activity (Mus musculus, UniProt Q9EQY0)
T1 construct: from tissue; host or cells: thioglycolate-elicited peritoneal macrophages of C57BL/6 mice
Assay: IRE1 and FMRP phosphorylation in peritoneal macrophages of TM-injected mice (western blot)
Type: in vivo
Details: C57BL/6, AMG-18 30 mg/kg 8 hours, TM 1 mg/kg
Method: FIGS. 1A-1K depict FMRP is a new inositol-requiring enzyme-1 (IRE1) kinase substrate. A representative blot is shown from at least n=3 independent experiments. Data are mean±SEM. Unpaired 1-test with Welch's correction or paired 1-test. * P≤0.05, ** P≤0.01, *** P≤0.001. • 1A. STING analysis of published IRE1 interactome proteins in relation to FMRP (Acosta-Alvear et al., 2018). • 1B. HEK293T cells were co-transfected with IRE1 and FMRP plasmids and stimulated with TG (600 nM) or TM (1 mg/ml) for 2 hours. Protein lysates were immunoprecipitated (IP) with anti-IRE1 or IgG (control) antibodies and analyzed by Western blotting using specific antibodies for FMRP and IRE1 (n=3). • 1C. RAW 264.7 mouse macrophages were treated with either oxLDL (50 μg/ml) or TG (300 nM) for 6 hours. Protein lysates were treated with λ Phosphatase (PPase) for 30 minutes and analyzed by western blotting using specific antibodies for pFMRP, FMRP, pIRE1, IRE1 and β-Actin. pFMRP/FMRP fold induction is depicted above the blots (n=6). • 1D. […] Protein lysates were analyzed by western blotting using specific antibodies for pFMRP, FMRP, pIRE1, IRE1 and β-Actin. pFMRP/FMRP-fold induction is depicted above the blots (n=5). • 1E. […] Protein lysates were analyzed by western blotting using specific antibodies for pFMRP, FMRP, pIRE1, IRE1 and β-Actin. pFMRP/FMRP fold induction is depicted above the blots (n=4). • 1F. […]

T1 sequence (Q9EQY0 21-977): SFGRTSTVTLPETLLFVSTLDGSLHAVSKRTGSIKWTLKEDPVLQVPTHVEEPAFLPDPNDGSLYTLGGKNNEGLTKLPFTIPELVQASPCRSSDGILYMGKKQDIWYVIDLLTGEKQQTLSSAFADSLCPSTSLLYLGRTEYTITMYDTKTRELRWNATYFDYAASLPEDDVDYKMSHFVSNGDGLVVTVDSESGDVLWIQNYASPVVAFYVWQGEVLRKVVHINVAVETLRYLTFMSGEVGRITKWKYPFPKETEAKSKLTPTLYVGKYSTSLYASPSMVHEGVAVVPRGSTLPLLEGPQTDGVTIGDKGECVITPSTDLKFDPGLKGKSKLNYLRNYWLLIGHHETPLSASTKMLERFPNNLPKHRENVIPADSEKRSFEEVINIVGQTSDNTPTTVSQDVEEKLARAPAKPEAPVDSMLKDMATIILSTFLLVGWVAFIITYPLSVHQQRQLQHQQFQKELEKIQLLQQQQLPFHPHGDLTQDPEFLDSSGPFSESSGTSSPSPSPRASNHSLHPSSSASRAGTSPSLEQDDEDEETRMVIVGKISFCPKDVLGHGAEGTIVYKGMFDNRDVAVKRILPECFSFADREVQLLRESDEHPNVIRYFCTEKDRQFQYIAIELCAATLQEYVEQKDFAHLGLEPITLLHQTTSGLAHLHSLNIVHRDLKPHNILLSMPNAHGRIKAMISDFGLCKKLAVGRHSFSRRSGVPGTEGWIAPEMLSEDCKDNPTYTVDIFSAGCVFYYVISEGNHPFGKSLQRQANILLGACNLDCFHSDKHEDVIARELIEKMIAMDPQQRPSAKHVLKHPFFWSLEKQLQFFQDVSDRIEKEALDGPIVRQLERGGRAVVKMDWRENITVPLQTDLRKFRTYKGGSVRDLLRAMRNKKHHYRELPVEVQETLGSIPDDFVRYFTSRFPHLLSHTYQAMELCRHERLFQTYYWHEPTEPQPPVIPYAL

FMRP phosphorylation in PM: reduced
IRE1 kinase activity (pIRE1) in PM: inhibited
SMILES: Cc1ccc2c(NS(=O)(=O)c3ccccc3Cl)cccc2c1Oc1ncccc1-c1ccnc(N[C@H]2CCCNC2)n1 [AMG-18]

Reference: patent US20250134889A1, “TARGETING IRE1 KINASE AND FMRP FOR PROPHYLAXIS, MANAGEMENT AND TREATMENT OF ATHEROSCLEROSIS” (CEDARS-SINAI MEDICAL CENTER, priority 2022, published 2025)
